This is an account of results in a melting point compilation (Tetko et al.; mined from patent text by program, amines drawn as free bases though some values may be those of a salt).

The term melting point denotes the temperature of the solid-liquid transition. Regarding `CCOc1ccc(C2=NN(CCCCBr)C(=O)[C@H]3CC=CC[C@@H]23)cc1OCC` (relative stereo), the melting point lay within 73 to 75 °C. In turn, `CC1CC(C)CC2(C1)OC(N)=NC2=O` (stereo not given) returned a melting point of 276 to 281 °C. In the case of `CN(C)c1c(C=O)n(C)c(=O)n1-c1cccc(C(F)(F)F)c1` it was 87 to 90 °C; in that of `Cc1nc(-n2cccc(OCc3ccccc3)c2=O)sc1C(=O)NCc1ccccc1`, 198 to 201 °C.

The compound `COc1cc(OC)cc(C(=CC#N)c2ccc3ncccc3c2)c1` returned a melting point of 142 to 144 °C. The value for `O=C1CCSc2ncccc21` was 66 to 68 °C; that for `C[Si](C)(C)c1ccc(N)cc1` was 123 to 124 °C; that for `c1ccc(C2CCN(CC34CC(c5ccccc53)c3ccccc34)CC2)cc1` was > 300 °C. `Cn1c(CC(=O)O)ccc1C(=O)c1ccccc1Cl`: the melting point is 140 to 141 °C. On to `COc1cc(/C=C/c2ccc(C(C)C)cc2)cc(OC)c1OC`, for which the melting point is 74 to 75 °C. In the case of `O=C1Nc2ccccc2C2=NC(CBr)CN12` (stereo not given) it was 213 to 214 °C. In the case of `C=C(CC(=O)O)c1ccc(-c2ccc(F)cc2F)cc1` it was 109 to 110 °C. `CCOC(=O)CCCn1c(Nc2c(C)noc2C)nc2c(Cl)ccc(C(CC)CC)c21` registered a melting point of 135 to 138 °C. The value for `COC(=O)c1ccc(CO)nc1C1=NC(C)(C(C)C)C(=O)N1` (stereo not given) was 115 to 118 °C; that for `CCOC(=O)C(=O)CC(=O)CC(=O)c1ccc(Cl)cc1` was 93 to 94 °C; that for `Cn1c(C(F)(F)F)cc(=O)n(-c2c(F)cc(Cl)c3cc(-c4ccccc4)oc23)c1=O` was 215 to 216 °C. The compound `N#Cc1ccc(N(Cc2ccc(OS(N)(=O)=O)c(Cl)c2)n2cnnc2)cc1-c1ccccc1` displayed a melting point of 201 to 204 °C.

The compound `CCCOc1ccc(S(=O)(=O)N2CCN(CC)CC2)cc1-c1nc2cc3ncn(Cc4ccccc4OC)c3cc2c(=O)[nH]1` registered a melting point of 180 to 182 °C. The value for `CC(C)(C)OC(=O)NCC1CC(ON2C(=O)c3ccccc3C2=O)C1` (stereo not given) was 145 to 150 °C. In turn, `Clc1ccc2c(Br)ccnc2c1` displayed a melting point of 102 to 103 °C. Consider `COCC1OC(OC(C)=O)C(OC(C)=O)C(OC(C)=O)C1OC(C)=O` (stereo not given), for which the melting point was 102 to 103 °C.

Turning to `CCOC(=O)c1cc(NC(=O)C(Cc2ccc(Cl)c(Cl)c2)NC(=O)OC(C)(C)C)c[nH]1` (stereo not given), the melting point was 175 to 185 °C. For the compound `Cc1ncn(-c2ccccc2C#N)n1`, the melting point lay within 109 to 110 °C.

With `FC(F)(F)c1ccc(-c2cc(C(F)(F)F)n3cnc(-c4ccncc4)c3n2)cc1`, the melting point is 240 °C. The compound `COC(=O)C=Cc1ccc(-c2ccc(C=CC(=O)OC)cc2C(F)(F)F)c(C(F)(F)F)c1` gave a melting point of 158 to 161 °C. On to `CC(C)(O)CC(=O)N[C@H]1CC[C@H](CCN2CCN(c3nccc4c3OCC4)CC2)CC1`, for which the melting point was 139 °C. In the case of `Oc1ccc(C(O)(c2ccccc2)C(CCCCl)c2ccccc2)cc1` (stereo not given) it was 75 to 78 °C; in that of `Cc1nc2ccc(CN(CCO)c3ccc(C(=O)NCc4cccc([N+](=O)[O-])c4)cc3)cc2c(=O)[nH]1`, 230 to 232 °C; in that of `CCC(=O)N1CCC(NC(=O)Nc2ccc(OC(F)(F)F)cc2)CC1`, 195 to 196 °C. The value for `COc1cc(OC)cc(-c2cc(=O)c3ccc(OCCCBr)cc3o2)c1` was 173 to 174 °C. In the case of `CCCOc1ccc([N+](=O)[O-])nc1C` it was 54 to 56 °C.

In turn, `CN1CCN(c2ccc3nc(N)c(C#N)c(Cl)c3c2)CC1` yielded a melting point of 189 °C. The value for `O=C(O)c1cc(CCCBr)ccc1O` was 68 to 73 °C.

For the compound `C=CCNC(=O)c1ccc([N+](=O)[O-])cc1Br`, the melting point was 98 to 100 °C. In the case of `O=C(O)C1CC(c2ccco2)=NN1C(=O)CCS` (stereo not given) it was 121 to 123 °C; in that of `CC(C)C(c1ccc(N)cc1)c1cccnc1` (stereo not given), 102 °C; in that of `Cc1c(C(=O)O)cnn1-c1ccc(F)c(Cl)c1`, 187 °C. The value for `Cc1ccc2cccc(OCc3c(Cl)ccc(N(C)C(=O)CNC(=O)C=Cc4ccc(-c5nnn[nH]5)cc4)c3Cl)c2n1` was 196 to 208 °C; that for `CN(C)C(=S)Oc1ccc(CC#N)cc1` was 120 to 124 °C. The value for `O=C(NO)[C@H](CNS(=O)(=O)c1ccc(OCc2c(C(F)(F)F)nn3ccccc23)cc1)N1CCN(Cc2ccccc2)CC1` was 138 °C; that for `CON1C(=O)CC2(CCN(C(=O)c3cccnc3)CC2)C1=O` was 199 to 201 °C. Compound `COC(=S)OCC(COC(=S)OC)OCn1cnc2c(=O)[nH]c(N)nc21` displayed a melting point of 148 to 150 °C. In the case of `COc1ccc2c(c1)Sc1cc(OC)ccc1N2CCC#N` it was 111 to 113 °C. On to `CNC(=NO)NCc1ccccc1`, for which the melting point was in the range of 97 to 99 °C. The value for `CC(C)(C)CN1C(=O)C(=O)N(c2ccc(F)cc2)C1=S` was 165 to 166 °C; that for `O=C1NCCN1c1ccc(C(F)(F)F)cc1` was 169 to 171 °C. Compound `Cc1cc2nc(-c3cccnc3N)n(-c3ccc(CC(=O)Nc4ccc5ncccc5c4)cc3)c2nc1-c1cccnc1` had a melting point of 176 to 178 °C.

In turn, `COc1cc2c(cc1OCCN(C)C)N(C(=O)c1ccc(-c3ccc(C#N)cc3C)cc1)CC2` had a melting point of 167 to 171 °C.

`CSc1sc(C(=O)N2CCOCC2)c2c1-c1oncc1C(C)(C)C2` gave a melting point of 175 to 177 °C. `C#CC[C@H](c1nc2cc(Cl)ccc2c(=O)n1Nc1ccccc1)N(CCCNC(=O)OCc1ccccc1)C(=O)c1cccc(Cl)c1F` showed a melting point of 103 to 105 °C. The value for `COC(=O)c1c(C)[nH]c(-c2ccncn2)c1C(=O)OC` was 210 to 211 °C. Turning to `O=C1Nc2ccccc2Sc2c1cccc2C(F)(F)F`, the melting point fell in the range of 256 to 258 °C. In the case of `CCOC(=O)c1c(C)nc2sc3c(c2c1OS(=O)(=O)C(F)(F)F)CCC1(C3)OCCO1` it was 133 to 134 °C; in that of `CNC(=O)N1CCC(Oc2cccc(C(F)(F)F)c2)(c2ccccc2)CC1`, 124 to 127 °C; in that of `O=C(CC1CCNCC1)c1ccc(N2CCCC2)cc1`, 144 to 145 °C. Regarding `O=C(O)c1ccccc1N1C(=O)C=CC1=O`, the melting point lay within 165 to 168 °C.

As for `CCC(C(C)=CC(CNC(=O)c1c[nH]cn1)=NO)[N+](=O)[O-]` (stereo not given), the melting point was 157 to 158 °C. The value for `CCOc1cc2c(cc1OCC)CCCC(C(=O)N1CCN(C(=O)c3cc(OC)c(OC)c(OC)c3)CC1)=C2` was 183 to 185 °C; that for `CS(=O)(=O)Nc1cc2c(c(C(=O)O)c1)NCCCC2` was 204 to 205 °C; that for `Cc1cn(-c2nc(Nc3cccc(NS(C)(=O)=O)c3)nc3[nH]cnc23)cn1` was 298 to 301 °C. The compound `CCC(=O)C(CC)=NNc1ccccc1[N+](=O)[O-]` gave a melting point of 96 to 97 °C. `COC(=O)c1ccc(OCC(O)c2ccc3c(c2)C(C)(C)CCC3(C)C)cc1O` (stereo not given) displayed a melting point of 133 to 134 °C. The value for `CC(C)(C)c1ccc(CCC2CO2)cc1NC(=O)CC1c2ccccc2Oc2ccccc21` (stereo not given) was 156 to 157 °C; that for `CC(C)(C)NC(=O)NC(Cc1ccccc1)C(O)C(O)C(Cc1ccccc1)NC(=O)NC(C)(C)C` (stereo not given) was 193 to 196 °C. As for `COc1ccc(OCC(O)COc2cccc3oc(C(=O)O)cc(=O)c23)cc1` (stereo not given), the melting point was in the range of 125 to 126 °C. The value for `Nc1ccc(C(=O)O)c(C(=O)O)c1` was 188 °C; that for `N#CCCNC(=O)c1cccc(-c2cccc3nn(Cc4cccc(C(F)(F)F)c4)cc23)c1` was 187 to 188 °C.

Take `CN(CCCNC(=O)NCCCOc1cccc(CN2CCCCC2)c1)CCC(c1ccc(F)cc1)c1ccccn1` (stereo not given): the melting point is 65 to 67 °C. Turning to `COC1(c2cc(F)cc(Sc3ccc(/C(C)=N/O)c(O)c3)c2)CCOCC1`, the melting point fell in the range of 140 to 142 °C. In the case of `COc1ccc2c(c1)Oc1cccc([N+](=O)[O-])c1N2`, the melting point was 197 to 199 °C. Compound `CCCCCCCCCCCCCCOc1ccc(CC(=O)Nc2cccc(I)c2)cc1` yielded a melting point of 108 to 110 °C. Regarding `CC(=O)c1ccc(OCC(C)(O)C(=O)Nc2ccc([N+](=O)[O-])c(C)c2)cc1` (stereo not given), the melting point was 153 to 155 °C. Regarding `O=C(Nc1cc(Cl)c(N2CCCC2)c(Cl)c1)c1ccc(F)c(OCc2cccnc2)c1`, the melting point fell in the range of 163 to 167 °C.

Compound `NC(=O)c1nc2ccccc2cc1OCCCN1CCN(c2cccc3sccc23)CC1` returned a melting point of 153 to 154 °C. The value for `Cc1nc(Cl)n(-c2ccccc2)n1` was 81 to 84 °C; that for `CCCCCCCNC(=O)Nc1ccccc1C(=O)NCCCC1CCN(C(c2ccccc2)c2ccccc2)C1` (stereo not given) was 109 to 111 °C; that for `CC1(CBr)OC(C(Br)(Br)Br)OC1=O` (stereo not given) was 110 to 113 °C. For `CCOC(=O)C1=C(C)NC(=S)N(C(=O)OC(C)C)C1c1cccc([N+](=O)[O-])c1` (stereo not given), the melting point lay within 150 to 152 °C. As to `CCOC(=O)/C=C/c1cccc(C(F)(F)F)c1`, the melting point fell in the range of 40 to 41 °C. In the case of `CN(O)C(=O)c1cccc2c1[nH]c1c3cc(Br)ccc3oc21` it was 174 to 175 °C; in that of `Nc1nc(-c2cc(Cl)ccc2Cl)nc(N2CCC[C@H]2C(=O)O)n1`, 144 to 147 °C; in that of `BrCC(Br)c1ccc(-c2ccccc2)cc1` (stereo not given), 79 to 81 °C. In the case of `O=c1[nH][nH]c(=O)n1CCCCl` it was 168 to 170 °C; in that of `Fc1ccc(F)c(CN2CCNc3ncc(-c4ccc(N5CCOCC5)nc4)cc32)c1`, 206 to 207 °C; in that of `CC(C)C1=C(C#N)C(c2cccc(N3CCOCC3)c2)c2c[nH]nc2N1` (stereo not given), 254 to 257 °C.

`COc1ccc2c(c1)c(CC(=O)O)c(C)n2-c1ccnc2cc(Cl)ccc12` had a melting point of 248 to 250 °C. Regarding `Cc1c(-c2ccc3oc(=O)n(C)c3c2)nc2c(O)cccn12`, the melting point is > 280 °C. The value for `Cc1cc(C)c(C=O)c(-c2ccc(Cl)c(Cl)c2)c1` was 80 to 81 °C; that for `COc1ccc(-c2ncn(C3CCCCO3)c2-c2ccc(OC)cc2)cc1` (stereo not given) was 127 to 128 °C. `Cc1c(C)c2c(c(C)c1O)CC[C@](C)(C(=O)N[C@H]1CCOC1=O)O2` showed a melting point of 195 to 196 °C.
